Measured values taken from paper PMC5469750, “Antibacterial and detoxifying activity of NZ17074 analogues with multi-layers of selective antimicrobial actions against Escherichia coli and Salmonella enteritidis” (Scientific Reports, 2017).
Bridges are numbered along the chain shown (N, C = ends). Where no end group is shown, it is not given here.

How the values were obtained:
[1] = system: Enterococcus faecium CMCC1.2136; type: cell-based; details: microbroth dilution, MH medium, 1 × 10^5 CFU/ml, 37 °C, 18–24 h; representative of three independent experiments
Method: (§1) The antimicrobial activity of peptides was determined by the microbroth dilution method. The bacterial strains were incubated in Mueller-Hinton (MH) medium at 37 °C overnight until the mid-log phase (OD600 nm reading of 0.5). Bacteria were diluted to 1 × 10^5 CFU/ml and added into 96-well plates, followed by the addition of serial dilutions of peptides (from 0.0625 to 128 μg/ml). The plates were incubated at 37 °C for 18–24 h. The MIC value was determined as the lowest peptide concentration at which no bacterial growth was observed. All tests were conducted in triplicate.

[2] = system: Bacillus subtilis ATCC6633; type: cell-based; details: microbroth dilution, MH medium, 1 × 10^5 CFU/ml, 37 °C, 18–24 h; representative of three independent experiments
Method: as §1

S. pullorum CVCC1789 = type: cell-based; details: microbroth dilution, MH medium, 1 × 10^5 CFU/ml, 37 °C, 18–24 h; representative of three independent experiments
Method: as §1

S. choleraesuis CVCC503 = type: cell-based; details: microbroth dilution, MH medium, 1 × 10^5 CFU/ml, 37 °C, 18–24 h; representative of three independent experiments
Method: as §1

S. pullorum CVCC1802 = type: cell-based; details: microbroth dilution, MH medium, 1 × 10^5 CFU/ml, 37 °C, 18–24 h; representative of three independent experiments
Method: as §1

[3] = system: Pseudomonas aeruginosa CICC10419; type: cell-based; details: microbroth dilution, MH medium, 1 × 10^5 CFU/ml, 37 °C, 18–24 h; representative of three independent experiments
Method: as §1

S. suis CVCC606 = type: cell-based; details: microbroth dilution, MH medium, 1 × 10^5 CFU/ml, 37 °C, 18–24 h; representative of three independent experiments
Method: as §1

[4] = system: Listeria ivanovii ATCC19119; type: cell-based; details: microbroth dilution, MH medium, 1 × 10^5 CFU/ml, 37 °C, 18–24 h; representative of three independent experiments
Method: as §1

[5] = system: Staphylococcus aureus ATCC43300; type: cell-based; details: microbroth dilution, MH medium, 1 × 10^5 CFU/ml, 37 °C, 18–24 h; representative of three independent experiments
Method: as §1

Escherichia coli CVCC195 = type: cell-based; details: microbroth dilution, MH medium, 1 × 10^5 CFU/ml, 37 °C, 18–24 h; representative of three independent experiments
Method: as §1

[6] = system: Salmonella typhimurium ATCC14028; type: cell-based; details: microbroth dilution, MH medium, 1 × 10^5 CFU/ml, 37 °C, 18–24 h; representative of three independent experiments
Method: as §1

S. enteritidis CVCC3377 = type: cell-based, Salmonella enteritidis; details: microbroth dilution, MH medium, 1 × 10^5 CFU/ml, 37 °C, 18–24 h; representative of three independent experiments
Method: as §1

E. coli CVCC1515 [7] = type: cell-based, Escherichia coli; details: microbroth dilution, MH medium, 1 × 10^5 CFU/ml, 37 °C, 18–24 h; representative of three independent experiments
Method: as §1

[8] = system: E. coli CICC21530 (serotype O157:H7); type: cell-based, Escherichia coli; details: microbroth dilution, MH medium, 1 × 10^5 CFU/ml, 37 °C, 18–24 h; representative of three independent experiments
Method: as §1

[9] = Calcein leakage from model eukaryotic membranes; type: biochemical; details: POPC/cholesterol = 1:1 LUVs (500 μM lipid), 64 to 256 μg/ml, 5 min; 100% = 1% Triton X-100; n = 3
Method: Different lipids (Avanti Polar Linpids, Inc.) were used to prepare model membranes composed of POPC/ POPG (4:1 molar ratio) and POPC/cholesterol (1:1) by the extrusion method as previously described. POPC/POPG and POPC/cholesterol LUVs were used to mimic gram-negative bacterial and eukaryotic membranes, respectively. […] After incubation for 5 min, the fluorescence (F) (λexcitation = 492 nm, λemission = 518 nm) was measured on a microplate reader.

murine erythrocytes = system: murine erythrocytes; design: method as in PMID 24816779; details: 128 μg/ml; parent peptide; cited from earlier work
[10] = system: Candida albicans CGMCC2.2411; type: cell-based; details: microbroth dilution, MH medium, 1 × 10^5 CFU/ml, 37 °C, 18–24 h; representative of three independent experiments
[11] = LPS binding, BODIPY-TR-cadaverine (BC) displacement; details: 100 μM; 40 μg/ml LPS and 10 μM BC in 50 mM Tris buffer pH 7.4, 1 h, room temperature
Method: Equal volumes of 40 μg/ml LPS and 10 μM BC in 50 mM Tris buffer (pH 7.4) were mixed, added into 96-well plates and incubated in the dark for 4 h at room temperature. […] Fluorescence was then measured using a microplate reader (excitation/emission, 580/620 nm). The occupancy rate was calculated by the following equation: BC displacement rate (%) = (1 − (F0 − F)/(F0 − Fmax)) × 100, wherein F0 is the fluorescence intensity of the solution of BC alone; Fmax is the fluorescence intensity in the presence of LPS at the saturation concentration, and F is the intensity of LPS:BC mixtures at varying displacer concentrations.

P. aeruginosa CICC21630 = type: cell-based, Pseudomonas aeruginosa; details: microbroth dilution, MH medium, 1 × 10^5 CFU/ml, 37 °C, 18–24 h; representative of three independent experiments
Method: as §1

S. aureus ATCC25923 = type: cell-based, Staphylococcus aureus; details: microbroth dilution, MH medium, 1 × 10^5 CFU/ml, 37 °C, 18–24 h; representative of three independent experiments
Method: as §1

E. coli CVCC1515 [12] = test: E. coli-induced peritonitis model, survival; type: in vivo, ICR mice; details: 7 days, six mice per group
Method: (§2) Mice injected with only bacteria or saline served as negative (untreated) or blank (unchallenged) controls, respectively. Survival of mice was recorded every 12 h and followed for 7 days.

TNF-α = test: LPS-induced cytokine release, serum ELISA; type: in vivo, C57BL/6 mice; details: 15 mg/kg intraperitoneal 0.5 h after 10 mg/kg LPS; LPS control 394.9; mean, n = 3 per group
Method: (§3) Blood was collected in a heparin sodium tube at 2 h or 8 h after LPS injection and incubated for 30 min at 37 °C and then overnight at 4 °C. After centrifugation at 3,000 rpm for 10 min at 4 °C, serum was collected from supernatant. The cytokine levels of TNF-α, IL-6 and IL-1β were detected by the Jiaxuan Biotech. Co. Ltd. (Beijing, China) using an enzyme linked immunosorbent assay (ELISA).

IL-1β = test: LPS-induced cytokine release, serum ELISA; type: in vivo, C57BL/6 mice; details: 15 mg/kg intraperitoneal 0.5 h after 10 mg/kg LPS; LPS control 292.9; mean, n = 3 per group
Method: as §3

IL-6 = test: LPS-induced cytokine release, serum ELISA; type: in vivo, C57BL/6 mice; details: 15 mg/kg intraperitoneal 0.5 h after 10 mg/kg LPS; LPS control 1026.8; mean, n = 3 per group
Method: as §3

E. coli 0111:B4 LPS = test: LPS-induced endotoxemia model, survival; type: in vivo, C57BL/6 mice; details: 7 days, six mice per group
Method: Eight-week-old SPF male C57BL/6 mice (20 g ± 5 g, six mice per group) were injected intraperitoneally with E. coli 0111:B4 LPS (30 mg/kg body weight, Sigma). […] Mice injected with PBS were used as the negative control. The mouse survival rate was recorded for 7 days.

S. enteritidis CICC22956 = test: S. enteritidis-induced peritonitis model, survival; type: in vivo, ICR mice; details: 7 days, six mice per group
Method: as §2

## GFCWNVCVYRNGVRVCHRRCN (bicyclic or more) (disulfide 7-16, 3-20) [N1, parent marine peptide, variant of arenicin-3 (Tyr5 → Asn, Tyr17 → His) from the lugworm Arenicola marina, reference compound]
[1]
  MIC: >16 µg/mL
[2]
  MIC: 0.25 µg/mL
S. pullorum CVCC1789
  MIC: 0.25 µg/mL
S. choleraesuis CVCC503
  MIC: 0.5 µg/mL
S. pullorum CVCC1802
  MIC: 0.25 µg/mL
[3]
  MIC: 2 µg/mL
S. suis CVCC606
  MIC: 16 µg/mL
[4]
  MIC: 128 µg/mL
[5]
  MIC: 16 µg/mL
Escherichia coli CVCC195
  MIC: 0.5 to 1 µg/mL
[6]
  MIC: 0.5 µg/mL
S. enteritidis CVCC3377
  MIC: 0.25 µg/mL
E. coli CVCC1515 [7]
  MIC: 0.25 µg/mL
[8]
  MIC: 0.5 µg/mL
[9]
  calcein dye leakage: 2.5–25.3%
Murine erythrocytes
  hemolysis: 3%
[10]
  MIC: 16 µg/mL
[11]
  BC displacement percentage: 79.8%
P. aeruginosa CICC21630
  MIC: 4 µg/mL
S. aureus ATCC25923
  MIC: 0.5 to 1 µg/mL

## polymyxin B [PMB]
E. coli CVCC1515 [12]; 0.31 mg/kg intraperitoneal at 0.5 and 8 h after inoculation
  survival rate: 66.7%
E. coli CVCC1515 [12]; 0.625 mg/kg intraperitoneal at 0.5 and 8 h after inoculation
  survival rate: 100%
TNF-α
  serum level of TNF-α: 74.0 pg/mL
IL-1β
  serum level of IL-1β: 242.8 pg/mL
IL-6
  serum level of IL-6: 514.9 pg/mL
[9]
  calcein dye leakage: 12.3–51.0%
E. coli 0111:B4 LPS; 10 mg/kg intraperitoneal at 0.5 h and 8 h after LPS (30 mg/kg)
  survival rate: 16.7%
E. coli 0111:B4 LPS; 15 mg/kg intraperitoneal at 0.5 h and 8 h after LPS (30 mg/kg)
  survival rate: 100%
[11]
  BC displacement percentage: 89.3%
S. enteritidis CICC22956; 0.31 mg/kg intraperitoneal at 0.5 h and 8 h after challenge
  survival rate: 83.3%
S. enteritidis CICC22956; 0.625 mg/kg intraperitoneal at 0.5 h and 8 h after challenge
  survival rate: 100%
